Results: US20250296959A1, “B7-H3 TARGETING PEPTIDES AND CONSTRUCTS THEREOF” (Mariana Oncology Inc., priority 2024, published 2025)
Starred links: 1 amine or outer side, 2 acyl side, 3 side chain; linkers in the order of their positions; H or OH if unused. Positions of bridges follow the written chain, without caps; N, C: chain ends. Non-standard residues stand in square brackets, D forms with d. Residues, ends and D or L forms follow the SMILES beside them. *: point of attachment. Ala(piperidin-4-yl) = O=C([C@H](CC1CCN([*:3])CC1)N[*:1])[*:2]; Phe(3-CH2NH2) = O=C([C@H](Cc1cccc(CN[*:3])c1)N[*:1])[*:2]; DOTA = O=C(O)CN1CCN(CC(=O)O)CCN(CC(=O)*)CCN(CC(=O)O)CC1; Trp(4-Me) = Cc1cccc2[nH]cc(C[C@H](N)C(=O)O)c12; Trp(5-F) = N[C@@H](Cc1c[nH]c2ccc(F)cc12)C(=O)O; 1Nal = N[C@@H](Cc1cccc2ccccc12)C(=O)O; Ala(4-THP) = N[C@@H](CC1CCOCC1)C(=O)O; hLeu(5-Me) = CC(C)(C)CC[C@H](N)C(=O)O; αMeY = C[C@](N)(Cc1ccc(O)cc1)C(=O)O; Val(3-OH) = CC(C)(O)[C@H](N)C(=O)O; Gly(cPr) = N[C@H](C(=O)O)C1CC1; aThr = C[C@H](O)[C@H](N)C(=O)O; Tle = CC(C)(C)[C@H](N)C(=O)O; hLeu = CC(C)CC[C@H](N)C(=O)O; Sar = CNCC(=O)O

Biological target: T1, human 4lg B7-H3 (Homo sapiens, UniProt Q5ZPR3)
T1 sequence (Q5ZPR3 29-534): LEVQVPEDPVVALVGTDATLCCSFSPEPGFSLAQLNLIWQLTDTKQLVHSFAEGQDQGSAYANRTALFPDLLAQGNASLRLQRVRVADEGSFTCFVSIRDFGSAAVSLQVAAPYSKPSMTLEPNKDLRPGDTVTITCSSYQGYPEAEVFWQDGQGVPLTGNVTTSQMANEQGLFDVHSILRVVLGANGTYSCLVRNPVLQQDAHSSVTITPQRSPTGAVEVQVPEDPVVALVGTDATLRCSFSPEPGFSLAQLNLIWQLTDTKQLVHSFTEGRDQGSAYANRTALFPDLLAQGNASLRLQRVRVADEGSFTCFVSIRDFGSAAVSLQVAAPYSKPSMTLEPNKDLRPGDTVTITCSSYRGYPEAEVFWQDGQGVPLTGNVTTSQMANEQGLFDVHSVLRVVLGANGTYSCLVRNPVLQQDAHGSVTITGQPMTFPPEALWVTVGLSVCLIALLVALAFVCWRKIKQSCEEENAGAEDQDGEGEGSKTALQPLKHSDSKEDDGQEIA
Experiment: Affinity determination by surface plasmon resonance (SPR) to 4Ig B7-H3
Conditions: SPR KD—25° C., 4Ig B7-H3; 25° C. flow cell temperature

Kd [nM] | Compound
10 to 100 | CC(=O)N[C@@H](CCC(C)C)C(=O)N[C@@H](Cc1ccc(O)cc1)C(=O)N[C@H]1CSSC[C@@H](C(=O)N[C@@H](Cc2c[nH]c3ccccc23)C(=O)N[C@@H](Cc2ccccc2)C(=O)N[C@H](C(=O)N[C@H](CCCCNC(=O)CN2CCN(CC(=O)O)CCN(CC(=O)O)CCN(CC(=O)O)CC2)C(N)=O)[C@@H](C)O)NC(=O)[C@H](Cc2ccc(O)cc2)NC(=O)[C@H](C(C)C)NC(=O)[C@H](CC(=O)O)NC(=O)[C@H](Cc2ccc(O)cc2)NC(=O)[C@H](CCCCN)NC(=O)CNC(=O)[C@H]([C@H](C)O)NC1=O [compound 120, Ac-hLeu-Y-C-alloThr-G-K-Y-D-V-Y-C-W-F-Thr-dLys(DOTA)-CONH2] (Ac-[hLeu]YC[aThr]GKYDVYCWFT[dK](DOTA)-NH2; disulfide 3-11)
1 to 10 | CC(=O)N[C@@H](CCC(C)C)C(=O)N[C@@H](Cc1ccc(O)cc1)C(=O)N[C@H]1CSSC[C@@H](C(=O)N[C@@H](Cc2c[nH]c3ccccc23)C(=O)N[C@@H](Cc2ccccc2)C(=O)N[C@H](C(=O)N[C@H](CCCCNC(=O)CN2CCN(CC(=O)O)CCN(CC(=O)O)CCN(CC(=O)O)CC2)C(N)=O)[C@@H](C)O)NC(=O)[C@H](Cc2ccc(O)cc2)NC(=O)[C@H](C2CC2)NC(=O)[C@H](CC(=O)O)NC(=O)[C@H](Cc2ccc(O)cc2)NC(=O)[C@H](CCCCN)NC(=O)CNC(=O)[C@H](C(C)C)NC1=O [compound 123, Ac-hLeu-Y-C-V-G-K-Y-D-Cpg-Y-C-W-F-Thr-dLys(DOTA)-CONH2] (Ac-[hLeu]YCVGKYD[Gly(cPr)]YCWFT[dK](DOTA)-NH2; disulfide 3-11)
10 to 100 | CC(=O)N[C@@H](CCC(C)C)C(=O)N[C@@H](Cc1ccc(O)cc1)C(=O)N[C@H]1CSSC[C@@H](C(=O)N[C@@H](Cc2c[nH]c3ccc(F)cc23)C(=O)N[C@@H](Cc2ccccc2)C(=O)N2CCC[C@H]2C(N)=O)NC(=O)[C@H](Cc2ccc(O)cc2)NC(=O)[C@H](C(C)C)NC(=O)[C@H](CC(=O)O)NC(=O)[C@H](CC2CCOCC2)NC(=O)[C@H](CCCCNC(=O)CN2CCN(CC(=O)O)CCN(CC(=O)O)CCN(CC(=O)O)CC2)NC(=O)CNC(=O)[C@H](C(C)(C)C)NC1=O [compound 273, Ac-hLeu-Y-C-Tbg-G-Lys(DOTA)-ThpA-D-V-Y-C-5FW-F-Pro-CONH2] (Ac-[hLeu]YC[Tle]GK(DOTA)[Ala(4-THP)]DVYC[Trp(5-F)]FP-NH2; disulfide 3-11)
10 to 100 | CC(=O)N[C@@H](CCC(C)C)C(=O)N[C@@](C)(Cc1ccc(O)cc1)C(=O)N[C@H]1CSSC[C@@H](C(=O)N[C@@H](Cc2c[nH]c3ccc(F)cc23)C(=O)N[C@@H](Cc2ccccc2)C(=O)N[C@H](C(=O)N[C@H](CCCCNC(=O)CN2CCN(CC(=O)O)CCN(CC(=O)O)CCN(CC(=O)O)CC2)C(N)=O)[C@@H](C)O)NC(=O)[C@H](Cc2ccc(O)cc2)NC(=O)[C@H](C(C)C)NC(=O)[C@H](CC(=O)O)NC(=O)[C@H](Cc2ccc(O)cc2)NC(=O)[C@H](CCCCN)NC(=O)CNC(=O)[C@H](C(C)C)NC1=O [compound 195, Ac-hLeu-aMeTyr-C-V-G-K-Y-D-V-Y-C-5FW-F-Thr-dLys(DOTA)-CONH2] (Ac-[hLeu][αMeY]CVGKYDVYC[Trp(5-F)]FT[dK](DOTA)-NH2; disulfide 3-11)
1 to 10 | CC(=O)N[C@@H](CCC(C)C)C(=O)N[C@@H](Cc1ccc(O)cc1)C(=O)N[C@H]1CSSC[C@@H](C(=O)N[C@@H](Cc2cccc3ccccc23)C(=O)N[C@@H](Cc2ccccc2)C(=O)N2CCC[C@H]2C(=O)N[C@H](CCCCNC(=O)CN2CCN(CC(=O)O)CCN(CC(=O)O)CCN(CC(=O)O)CC2)C(N)=O)NC(=O)[C@H](Cc2ccc(O)cc2)NC(=O)[C@H](C(C)C)NC(=O)[C@H](CC(=O)O)NC(=O)[C@H](Cc2ccc(O)cc2)NC(=O)[C@H](CCCCN)NC(=O)CNC(=O)[C@H](C(C)C)NC1=O [compound 245, Ac-hLeu-Y-C-V-G-K-Y-D-V-Y-C-1Nal-F-Pro-dLys(DOTA)-CONH2] (Ac-[hLeu]YCVGKYDVYC[1Nal]FP[dK](DOTA)-NH2; disulfide 3-11)
1 to 10 | CC(=O)N[C@@H](CCC(C)C)C(=O)N[C@@H](Cc1ccc(O)cc1)C(=O)N[C@H]1CSSC[C@@H](C(=O)N[C@@H](Cc2c[nH]c3ccc(F)cc23)C(=O)N[C@@H](Cc2ccccc2)C(=O)N[C@H](C(N)=O)[C@@H](C)O)NC(=O)[C@H](Cc2cccc(CNC(=O)CN3CCN(CC(=O)O)CCN(CC(=O)O)CCN(CC(=O)O)CC3)c2)NC(=O)[C@H](C(C)C)NC(=O)[C@H](CC(=O)O)NC(=O)[C@H](Cc2ccc(O)cc2)NC(=O)[C@H](CCCCN)NC(=O)CNC(=O)[C@H](C(C)C)NC1=O [compound 183, Ac-hLeu-Y-C-V-G-K-Y-D-V-MAF(DOTA)-C-5FW-F-Thr-CONH2] (Ac-[hLeu]YCVGKYDV[Phe(3-CH2NH2)](DOTA)C[Trp(5-F)]FT-NH2; disulfide 3-11)

Same assay, conditions: SPR KD—37° C., 4Ig B7-H3; 37° C. flow cell temperature

Kd [nM] | Compound
10 to 100 | CC(=O)N[C@@H](CCC(C)C)C(=O)N[C@@H](Cc1ccc(O)cc1)C(=O)N[C@H]1CSSC[C@@H](C(=O)N[C@@H](Cc2c[nH]c3ccc(F)cc23)C(=O)N[C@@H](Cc2ccccc2)C(=O)N[C@H](C(=O)O)[C@@H](C)O)NC(=O)[C@H](Cc2ccc(O)cc2)NC(=O)[C@H](C(C)C)NC(=O)[C@H](CC(=O)O)NC(=O)[C@H](CC2CCOCC2)NC(=O)[C@H](CCCCNC(=O)CN2CCN(CC(=O)O)CCN(CC(=O)O)CCN(CC(=O)O)CC2)NC(=O)CNC(=O)[C@H](C(C)(C)C)NC1=O [compound 328, Ac-hLeu-Y-C-Tbg-G-Lys(DOTA)-ThpA-D-V-Y-C-5FW-F-Thr-COOH] (Ac-[hLeu]YC[Tle]GK(DOTA)[Ala(4-THP)]DVYC[Trp(5-F)]FT-OH; disulfide 3-11)
1 to 10 | CC(=O)N[C@@H](CCC(C)C)C(=O)N[C@@H](Cc1ccc(O)cc1)C(=O)N[C@H]1CSSC[C@@H](C(=O)N[C@@H](Cc2c[nH]c3ccc(F)cc23)C(=O)N[C@@H](Cc2ccccc2)C(=O)N[C@H](C(=O)N[C@H](CCCCNC(=O)CN2CCN(CC(=O)O)CCN(CC(=O)O)CCN(CC(=O)O)CC2)C(=O)O)C(C)(C)O)NC(=O)[C@H](Cc2ccc(O)cc2)NC(=O)[C@H](C(C)C)NC(=O)[C@H](CC(=O)O)NC(=O)[C@H](CC2CCOCC2)NC(=O)[C@H](CCCCN)NC(=O)CN(C)C(=O)[C@H]([C@@H](C)O)NC1=O [compound 386, Ac-hLeu-Y-C-Thr-Sar-K-ThpA-D-V-Y-C-5FW-F-hydroxyVal-dLys(DOTA)-COOH] (Ac-[hLeu]YCT[Sar]K[Ala(4-THP)]DVYC[Trp(5-F)]F[Val(3-OH)][dK](DOTA)-OH; disulfide 3-11)
1 to 10 | CC(=O)N[C@@H](CCC(C)C)C(=O)N[C@@H](Cc1ccc(O)cc1)C(=O)N[C@H]1CSSC[C@@H](C(=O)N[C@@H](Cc2c[nH]c3cccc(C)c23)C(=O)N[C@@H](Cc2ccccc2)C(=O)N[C@H](C(=O)N[C@H](CCCCNC(=O)CN2CCN(CC(=O)O)CCN(CC(=O)O)CCN(CC(=O)O)CC2)C(=O)O)C(C)(C)O)NC(=O)[C@H](Cc2ccc(O)cc2)NC(=O)[C@H](C(C)C)NC(=O)[C@H](CC(=O)O)NC(=O)[C@H](CC2CCOCC2)NC(=O)[C@H](CC2CCNCC2)NC(=O)CNC(=O)[C@H](C(C)(C)C)NC1=O [compound 473, Ac-hLeu-Y-C-Tbg-G-PipAla-ThpA-D-V-Y-C-4MeW-F-hydroxyVal-dLys(DOTA)-COOH] (Ac-[hLeu]YC[Tle]G[Ala(piperidin-4-yl)][Ala(4-THP)]DVYC[Trp(4-Me)]F[Val(3-OH)][dK](DOTA)-OH; disulfide 3-11)
10 to 100 | CC(=O)N[C@@H](CCC(C)(C)C)C(=O)N[C@@H](Cc1ccc(O)cc1)C(=O)N[C@H]1CSSC[C@@H](C(=O)N[C@@H](Cc2c[nH]c3ccc(F)cc23)C(=O)N[C@@H](Cc2ccccc2)C(=O)N[C@H](C(=O)N[C@H](CCCCNC(=O)CN2CCN(CC(=O)O)CCN(CC(=O)O)CCN(CC(=O)O)CC2)C(=O)O)C(C)(C)O)NC(=O)[C@H](Cc2ccc(O)cc2)NC(=O)[C@H](C(C)C)NC(=O)[C@H](CC(=O)O)NC(=O)[C@H](CC2CCOCC2)NC(=O)[C@H](CCCCN)NC(=O)CNC(=O)[C@H](C(C)(C)C)NC1=O [compound 397, Ac-hTba-Y-C-Tbg-G-K-ThpA-D-V-Y-C-5FW-F-hydroxyVal-dLys(DOTA)-COOH] (Ac-[hLeu(5-Me)]YC[Tle]GK[Ala(4-THP)]DVYC[Trp(5-F)]F[Val(3-OH)][dK](DOTA)-OH; disulfide 3-11)
1 to 10 | CC(=O)N[C@@H](CCC(C)C)C(=O)N[C@@H](Cc1ccc(O)cc1)C(=O)N[C@H]1CSSC[C@@H](C(=O)N[C@@H](Cc2c[nH]c3ccc(F)cc23)C(=O)N[C@@H](Cc2ccccc2)C(=O)N[C@H](C(=O)N[C@H](CCCCNC(=O)CN2CCN(CC(=O)O)CCN(CC(=O)O)CCN(CC(=O)O)CC2)C(=O)O)C(C)(C)O)NC(=O)[C@H](Cc2ccc(O)cc2)NC(=O)[C@H](C(C)C)NC(=O)[C@H](CC(=O)O)NC(=O)[C@H](CC2CCOCC2)NC(=O)[C@H](CCCCN)NC(=O)CNC(=O)[C@H]([C@@H](C)O)NC1=O [compound 370, Ac-hLeu-Y-C-Thr-G-K-ThpA-D-V-Y-C-5FW-F-hydroxyVal-dLys(DOTA)-COOH] (Ac-[hLeu]YCTGK[Ala(4-THP)]DVYC[Trp(5-F)]F[Val(3-OH)][dK](DOTA)-OH; disulfide 3-11)
